For one test, the target named is EP4 (Homo sapiens (Human), UniProt P35408). Put plainly: hEP4 cAMP assay (BT549 breast cancer cells, HTRF cAMP). The format is cell-based. How it is done:
Plate is pre-incubated 45 minutes at room temperature. Subsequently, 2.5 microliters of PGE2 (final conc. 6 nM) are transferred into the assay plate. Plate is incubated 30 minutes at room temperature.

Another test deals with EP2 (Homo sapiens (Human), UniProt P43116).
Setting [1] is: antagonistic activity, mean values where measured multiple times.
The mark [2] stands for this setting: (*): measured using the cAMP assay.

Sequence of EP4 (P35408 whole entry): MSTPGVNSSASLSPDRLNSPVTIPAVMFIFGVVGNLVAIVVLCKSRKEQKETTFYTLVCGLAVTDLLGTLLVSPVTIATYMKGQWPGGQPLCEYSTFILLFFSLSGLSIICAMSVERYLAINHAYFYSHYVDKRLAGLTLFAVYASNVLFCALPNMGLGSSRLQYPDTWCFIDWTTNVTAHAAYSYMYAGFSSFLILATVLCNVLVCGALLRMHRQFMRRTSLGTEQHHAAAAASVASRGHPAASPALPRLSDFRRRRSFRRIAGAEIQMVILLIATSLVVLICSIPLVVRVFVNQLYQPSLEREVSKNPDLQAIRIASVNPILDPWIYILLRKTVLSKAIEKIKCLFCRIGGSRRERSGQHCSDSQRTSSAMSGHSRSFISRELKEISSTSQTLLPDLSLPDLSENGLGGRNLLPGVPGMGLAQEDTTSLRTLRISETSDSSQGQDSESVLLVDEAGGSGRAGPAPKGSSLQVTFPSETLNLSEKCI
Sequence of EP2 (P43116 whole entry): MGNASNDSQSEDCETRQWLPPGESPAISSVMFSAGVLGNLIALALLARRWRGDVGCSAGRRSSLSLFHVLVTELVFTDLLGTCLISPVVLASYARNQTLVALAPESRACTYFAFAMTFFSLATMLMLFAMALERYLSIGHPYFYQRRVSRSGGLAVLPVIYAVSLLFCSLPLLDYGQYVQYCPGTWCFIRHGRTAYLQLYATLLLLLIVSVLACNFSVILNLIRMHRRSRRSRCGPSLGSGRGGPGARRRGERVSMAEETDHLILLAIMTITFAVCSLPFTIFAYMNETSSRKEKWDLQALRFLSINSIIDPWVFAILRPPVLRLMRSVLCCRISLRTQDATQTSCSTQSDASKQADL

As usually defined, the IC50 is the concentration needed to halve the response being measured. A low value points to greater potency. Turning to `CCOc1cc(-c2cc(NCCn3c(Cl)cc4c(OC)ccc(F)c43)ncn2)ccc1C(=O)O` [Example 776, 4-{6-[2-(2-Chloro-7-fluoro-4-methoxy-indol-1-yl)-ethylamino]-pyrimidin-4-yl}-2-ethoxy-benzoic acid], the IC50 came to 44 nM against EP4 (setting [1]) and 6 nM against EP2.
On to `CCOc1cc(-c2cc(NCCn3c(Cl)cc4c(OC)ccc(F)c43)ncn2)sc1C(=O)O` [Example 777, 5-{6-[2-(2-Chloro-7-fluoro-4-methoxy-indol-1-yl)-ethylamino]-pyrimidin-4-yl}-3-ethoxy-thiophene-2-carboxylic acid], for which the IC50 on EP4 (setting [1]) was found to be 3 nM; against EP2, 2 nM.
With `CCOc1cc(-c2cc(NCCn3c(Cl)cc4c(Cl)ccc(F)c43)ncn2)ccc1C(=O)O` [Example 778, 4-{6-[2-(2,4-Dichloro-7-fluoro-indol-1-yl)-ethylamino]-pyrimidin-4-yl}-2-ethoxy-benzoic acid], the IC50 against EP4 (setting [1]) amounted to 175 nM; on EP2 it was 15 nM.
Take `CCOc1cc(-c2cc(NCCn3c(Cl)cc4c(C)ccc(F)c43)ncn2)ccc1C(=O)O` [Example 779, 4-{6-[2-(2-Chloro-7-fluoro-4-methyl-indol-1-yl)-ethylamino]-pyrimidin-4-yl}-2-ethoxy-benzoic acid]: the IC50 at EP4 (setting [1]) amounted to 242 nM; on EP2, 28 nM.
As for `CCOc1cc(-c2cc(NCCn3c(C)cc4c(Br)cccc43)ncn2)ccc1C(=O)O` [Example 780, 4-{6-[2-(4-Bromo-2-methyl-indol-1-yl)-ethylamino]-pyrimidin-4-yl}-2-ethoxy-benzoic acid], the IC50 on EP4 (setting [1]) turned out to be 826 nM; against EP2 it was 6 nM.
For `CCOc1cc(-c2cc(NCCn3c(C)cc4c(Br)cccc43)ncn2)sc1C(=O)O` [Example 781, 5-{6-[2-(4-Bromo-2-methyl-indol-1-yl)-ethylamino]-pyrimidin-4-yl}-3-ethoxy-thiophene-2-carboxylic acid], the IC50 against EP4 (setting [1]) is 18 nM; at EP2, 1 nM.
Turning to `COc1c(F)cc(Cl)c2c1cc(C)n2CCNc1cc(-c2ccc3c(=O)[nH][nH]c3c2)ncn1` [Example 782, 6-{6-[2-(7-Chloro-5-fluoro-4-methoxy-2-methyl-indol-1-yl)-ethylamino]-pyrimidin-4-yl}-1,2-dihydro-indazol-3-one], the IC50 at EP4 (setting [1]) came to 91 nM; against EP2 it was 39 nM.
Regarding `COc1c(F)cc(Cl)c2c1cc(C)n2CCNc1cc(-c2ccc3[nH][nH]c(=O)c3c2)ncn1` [Example 783, 5-{6-[2-(7-Chloro-5-fluoro-4-methoxy-2-methyl-indol-1-yl)-ethylamino]-pyrimidin-4-yl}-1,2-dihydro-indazol-3-one], the IC50 was 912 nM against EP4 (setting [1]) and 271 nM on EP2.
In the case of `Cc1ccc(F)c2c1cc(C)n2CCNc1cc(-c2ccc(-c3csc(CC(N)=O)n3)cc2)ncn1` [Example 784, 2-[4-(4-{6-[2-(7-Fluoro-2,4-dimethyl-indol-1-yl)-ethylamino]-pyrimidin-4-yl}-phenyl)-thiazol-2-yl]-acetamide], the IC50 at EP4 (setting [1]) was 512 nM; against EP2, 63 nM.
For the compound `COc1cccc2c1cc(C)n2CCNc1cc(-c2ccc(-c3csc(CC(N)=O)n3)cc2)ncn1` [Example 785, 2-[4-(4-{6-[2-(4-Methoxy-2-methyl-indol-1-yl)-ethylamino]-pyrimidin-4-yl}-phenyl)-thiazol-2-yl]-acetamide], the results for the IC50 at EP4 (setting [1]) and against EP2 were 906 nM and 13 nM, respectively.
As for `COc1ccc(F)c2c1cc(C)n2CCNc1cc(-c2ccc(-c3csc(CC(N)=O)n3)cc2)ncn1` [Example 786, 2-[4-(4-{6-[2-(7-Fluoro-4-methoxy-2-methyl-indol-1-yl)-ethylamino]-pyrimidin-4-yl}-phenyl)-thiazol-2-yl]-acetamide], the IC50 at EP4 (setting [1]) was 319 nM; on EP2 it was 16 nM.
On to `CCOc1cc(-c2cc(NCCn3c(C)cc4c(C)c(F)c(F)cc43)ncn2)ccc1C(=O)O` [Example 787, 4-{6-[2-(5,6-Difluoro-2,4-dimethyl-indol-1-yl)-ethylamino]-pyrimidin-4-yl}-2-ethoxy-benzoic acid], for which the IC50 turned out to be 729 nM against EP4 (setting [1]) and 21 nM against EP2.
Turning to `Cc1ccc(Cl)c2c1cc(C)n2CCNc1cc(-c2ccc(C(=O)O)c(S/C=C/F)c2)ncn1` [Example 788, 4-{6-[2-(7-Chloro-2,4-dimethyl-indol-1-yl)-ethylamino]-pyrimidin-4-yl}-2-((E)-2-fluoro-vinylsulfanyl)-benzoic acid], the values for the IC50 against EP4 (setting [1]) and on EP2 were 925 nM and 49 nM, respectively.
Consider `Cc1cc2ccccc2n1CCNc1cc(-c2ccc(-c3nnn[nH]3)c(O)c2)ncn1` [Example 789, 5-{6-[2-(2-Methyl-indol-1-yl)-ethylamino]-pyrimidin-4-yl}-2-(1H-tetrazol-5-yl)-phenol], for which the IC50 on EP4 (setting [1]) is 923 nM; against EP2, 6 nM.
In the same order, the values of `CCOC(=O)c1sc(-c2cc(NCCn3c(C)cc4c(OC)ccc(F)c43)ncn2)cc1OCC` [Example 790, 3-Ethoxy-5-{6-[2-(7-fluoro-4-methoxy-2-methyl-indol-1-yl)-ethylamino]-pyrimidin-4-yl}-thiophene-2-carboxylic acid ethyl ester] are 101 nM and 42 nM.
Turning to `COc1ccc(F)c2c1cc(C)n2CCNc1cc(-c2ccc(C3(C(=O)O)CCCC3)cc2)ncn1` [Example 791, 1-(4-{6-[2-(7-Fluoro-4-methoxy-2-methyl-indol-1-yl)-ethylamino]-pyrimidin-4-yl}-phenyl)-cyclopentanecarboxylic acid], the figures for the IC50 on EP4 (setting [1]) and against EP2 were 639 nM and 325 nM, respectively.
As to `Cc1cc2ccccc2n1CCNc1cc(-c2ccc(-c3nnn[nH]3)s2)ncn1` [Example 792, [2-(2-Methyl-indol-1-yl)-ethyl]-{6-[5-(1H-tetrazol-5-yl)-thiophen-2-yl]-pyrimidin-4-yl}-amine], the IC50 on EP4 (setting [1]) is 227 nM; at EP2 it was 2 nM.
Regarding `COc1ccc(F)c2c1cc(C)n2CCNc1cc(-c2ccc(-c3nnn[nH]3)s2)ncn1` [Example 793, [2-(7-Fluoro-4-methoxy-2-methyl-indol-1-yl)-ethyl]-{6-[5-(1H-tetrazol-5-yl)-thiophen-2-yl]-pyrimidin-4-yl}-amine], the IC50 against EP4 (setting [1]) stood at 18 nM; at EP2, 3 nM.
Turning to `CCOc1cc(-c2cc(NCCn3c(C#N)cc4c(OC)ccc(F)c43)ncn2)sc1C(=O)NS(=O)(=O)C1CC1` [Example 816, Cyclopropanesuifonic acid (5-{6-[2-(2-cyano-7-fluoro-4-methoxy-indol-1-yl)-ethylamino]-pyrimidin-4-yl}-3-ethoxy-thiophene-2-carbonyl)-amide], the IC50 stood at 15 nM at EP4 (setting [2]) and 24 nM against EP2.
With `CCOc1cc(-c2cc(NCCn3c(C#N)cc4c(OC)ccc(F)c43)ncn2)sc1/C=C/C(=O)O` [Example 931, (E)-3-(5-{6-[2-(2-Cyano-7-fluoro-4-methoxy-indol-1-yl)-ethylamino]-pyrimidin-4-yl}-3-ethoxy-thiophen-2-yl)-acrylic acid], the results for the IC50 against EP4 (setting [2]) and against EP2 were 14 nM and 35 nM, respectively.
On the same counts, the results for `CCOc1cc(-c2cc(NCCn3c(C#N)cc4c(Cl)cc(F)c(F)c43)ncn2)sc1C(=O)O` [Example 941, 5-{6-[2-(4-Chloro-2-cyano-6,7-difluoro-indol-1-yl)-ethylamino]-pyrimidin-4-yl}-3-ethoxy-thiophene-2-carboxylic acid] are 29 nM and 11 nM.
